In PMC7063992, “Opossum Cathelicidins Exhibit Antimicrobial Activity Against a Broad Spectrum of Pathogens Including West Nile Virus” (Frontiers in Immunology, 2020):
Like-named read-outs stand apart in the source and are kept apart here.

How the values were obtained:
[1] = tested on: Bacillus cereus ATCC 10876; assay: microbe, parasite or virus in culture; type: cell-based; conditions: B. cereus ATCC 10876, MHB, 37°C 6 h + 2 h, triplicate
Experimental: (§1) Peptides corresponding to the predicted antimicrobial regions of ModoCath1 (ΔModoCath1, N-VKRTKRGARRGL […]-C), ModoCath5 (ΔModoCath5, N-[…]-C), ModoCath6 (ΔModoCath6, N-[…]-C) and PMAP36 (N-[…] PLGCG-C) were synthesized via solid-phase peptide synthesis and purified via high-performance liquid chromatography using a commercial service (GenScript, Piscataway Township, NJ, United States). The MIC of synthesized peptides was determined against a panel of bacteria comprising 3 gram-positive strains, Staphylococcus aureus ATCC 6538 (ATCC, Manassas, VA, United States), Bacillus cereus ATCC 10876, and Enterococcus faecalis ATCC 29212, and 3 gram-negative strains, Escherichia coli ATCC 25922, Pseudomonas aeruginosa ATCC 27853, and Salmonella typhimurium ATCC 14028. Ampicillin (Sigma Aldrich, St. Louis, MO, United States) and gentamicin sulfate (Sigma Aldrich) were used as controls for antimicrobial activity. The MIC was determined using a colorimetric method specified by the Microbial Viability Assay Kit-WST (Dojindo, Kumamoto, Japan) in accordance with the manufacturer’s protocol and the Clinical and Laboratory Standards Institute (CLSI) guidelines (2018). Briefly, four colonies of each bacterium were inoculated into 5 mL Luria-Bertani (LB) broth medium at 37°C for 4 to 6 h. The cells were washed with sterile saline (0.9% NaCl) twice and seeded in a single well of a 96-well plate at the cell density of 10^5 CFU/well. Subsequently, 180 μL/well of fresh Mueller-Hinton broth (MHB) was added to the plate. Different concentrations of each peptide and reference antibiotics were serially diluted in 10 μL of MHB and added to each well. The plate was incubated at 37°C for 6 h. Cation-adjusted MH broth (CAMHB) was used to culture E. faecalis. Subsequently, 10 μL of the coloring reagent was added, and cells were incubated at 37°C for 2 h. UV absorbance was measured for each well at 450 nm, using a microplate spectrophotometer (xMark spectrophotometer; Bio-Rad, Hercules, CA, United States). MIC values were determined when the difference in the optical density (OD) between treatments and blanks (media and coloring reagent only) decreased to < 0.05. Experiments were conducted in triplicate. […] The pH conditions were achieved by using acetic acid (Sigma Aldrich).

[2] = tested on: Enterococcus faecalis ATCC 29212; assay: microbe, parasite or virus in culture; type: cell-based; conditions: E. faecalis ATCC 29212, CAMHB, 37°C 6 h + 2 h, triplicate
Experimental: as §1

[3] = tested on: Escherichia coli ATCC 25922; assay: microbe, parasite or virus in culture; type: cell-based; conditions: E. coli ATCC 25922, MHB, 10^5 CFU/well, 37°C 6 h + 2 h with coloring reagent, OD 450 nm, triplicate
Experimental: as §1

[4] = tested on: Pseudomonas aeruginosa ATCC 27853; assay: microbe, parasite or virus in culture; type: cell-based; conditions: P. aeruginosa ATCC 27853, MHB, 37°C 6 h + 2 h, triplicate
Experimental: as §1

[5] = tested on: Salmonella typhimurium ATCC 14028; assay: microbe, parasite or virus in culture; type: cell-based; conditions: S. typhimurium ATCC 14028, MHB, 37°C 6 h + 2 h, triplicate
Experimental: as §1

[6] = tested on: Staphylococcus aureus ATCC 6538; assay: microbe, parasite or virus in culture; type: cell-based; conditions: S. aureus ATCC 6538, MHB, 37°C 6 h + 2 h, triplicate
Experimental: as §1

HEK293T = assay: Mammalian cell cytotoxicity, WST-1; type: cell-based, human; conditions: positive control for complete cell lysis, concentration not given
Experimental: (§2) Two mammalian cell lines, including human embryonic kidney cells (HEK293T) and human breast cancer cells (MCF7) were cultured in Dulbecco’s modified Eagle’s medium (DMEM; Hyclone^TM, Logan, UT, United States) supplemented with 10% FBS (Hyclone^TM) and 1% penicillin/streptomycin (Hyclone^TM) and incubated at 37°C and 5% CO2 up to 80% confluence. Cellular adherence to the substratum was disrupted using Accutase (Innovative Cell Technologies, San Diego, CA, United States). In total, 1 × 10^4 to 4 × 10^4 cells in each well of a 96-well plate containing 8, 16, 32, and 64 μg/mL of ModoCath peptides were incubated for 24 h at 37°C and 5% CO2. Additionally, HEK293T cells were incubated in the FBS-free medium. Triton X 100 (Sigma Aldrich) was used as a positive control for complete cell lysis, and untreated cells were used as the negative control. After incubation, the medium was removed from the wells, and 10 μL of coloring solution (Cell Proliferation Reagent WST-1^TM; Sigma Aldrich) and 100 μL of DMEM (Hyclone^TM) were added to the wells in accordance with the manufacturer’s protocol. Absorbance was measured for each well at 440 nm (peptide-treated and control) and 650 nm (background) and recorded as the OD, using a microplate reader (xMark^TM spectrophotometer; Bio-Rad). Cell viability was calculated using the following equation:
(§3) (1) CellViability(%)=100×(ODpeptide-ODbackground)/(ODnegative-ODbackground)
(§4) All experiments were performed in triplicate.

MCF7 = assay: Mammalian cell cytotoxicity, WST-1; type: cell-based, human; conditions: positive control for complete cell lysis, concentration not given
Experimental: as §2, §3, §4

[7] = tested on: Human primary keratinocytes; assay: Viability of keratinocytes, XTT; type: cell-based; conditions: positive control, concentration not given
Excerpt: The Ethics Committee of the Poitiers Hospital approved the use of human skin samples for research studies. All subjects provided written informed consent in accordance with the tenets of the Declaration of Helsinki. Normal abdominal or breast skin samples were obtained from patients undergoing plastic surgery and thoroughly washed with PBS free of calcium and magnesium (PBS; Gibco, Thermo Fisher Scientific, Waltham, MA, United States) after fat removal. The skin samples were minced into fragments of approximately 125 mm^2, using scalpel blades. Skin samples were incubated overnight at 4°C in a dispase solution (25 U/mL; Life Technologies, Carlsbad, CA, United States). Epidermal sheets were removed from the dermis, and keratinocytes were dissociated via trypsin digestion (trypsin-EDTA; Gibco) for 15 min at 37°C. The cell suspension was then filtered through a 280-μm sterile filter. DMEM (Gibco) supplemented with 10% (vol/vol) of FBS (Gibco) was added, and the suspension was centrifuged at 300 × g and 25°C for 10 min. Keratinocytes were seeded at a density of 10^7 cells in 75-cm^2 tissue culture flask in keratinocyte-serum free medium (K-SFM; Invitrogen, Carlsbad, CA, United States) supplemented with bovine pituitary extract (25 μg/mL; Invitrogen) and recombinant epidermal growth factor (EGF) (0.25 ng/mL; Invitrogen). The cultures were incubated at 37°C in a humidified atmosphere with 5% CO2 until 80% confluence and then stored frozen in liquid nitrogen until use. Finally, keratinocytes were seeded in sterile 24-well culture plates at 10^5 cells/well in K-SFM supplemented with bovine pituitary extract and EGF and cultured to 80% confluence. Cells were then starved overnight in K-SFM alone before stimulation.
Primary keratinocytes were cultured in 96-well plates at 4 × 10^4 cells per well in 0.1 mL K-SFM (Invitrogen) up to 80% confluence before being treated with various concentrations of ModoCath peptides for 24 h. Cell viability was assessed using the cell proliferation kit II (XTT; Roche, Basel, Switzerland) in accordance with the manufacturer’s protocol. The XTT labeling mixture was added after 24 h of incubation in the absence or presence of peptides at the indicated concentrations.

[8] = Bacillus cereus, ATCC10876, read-out: MIC
[9] = Escherichia coli, ATCC25922, read-out: MIC
[10] = Staphylococcus aureus, ATCC6538, read-out: MIC

Compound | MIC [1, 8] [µg/mL] | MIC [3, 9] [µg/mL] | MIC [6, 10] [µg/mL] | MIC [1] | MIC [3] | MIC [6] | further results
CC1(C)S[C@@H]2[C@H](NC(=O)[C@H](N)c3ccccc3)C(=O)N2[C@H]1C(=O)O [Ampicillin, reference compound] | 16 | 1 | 1 | – | – | – | MIC ([2]; Enterococcus faecalis, ATCC29212, read-out: MIC): 2 µg/mL; MIC ([4]; Pseudomonas aeruginosa, ATCC27853, read-out: MIC): > 128 µg/mL; MIC ([5]; Salmonella enterica, read-out: MIC): 1 µg/mL
CN[C@H](CC(C)C)C(=O)N[C@H]1C(=O)N[C@@H](CC(N)=O)C(=O)N[C@H]2C(=O)N[C@H]3C(=O)N[C@H](C(=O)N[C@H](C(=O)O)c4cc(O)cc(O)c4-c4cc3ccc4O)[C@H](O)c3ccc(c(Cl)c3)Oc3cc2cc(c3O[C@@H]2O[C@H](CO)[C@@H](O)[C@H](O)[C@H]2O[C@H]2C[C@](C)(N)[C@H](O)[C@H](C)O2)Oc2ccc(cc2Cl)[C@H]1O [Vancomycin] | 4 | 32 | 5 | – | – | – | –
Nisin | – | – | – | 32 (9.54) μg/mL | > 32(9.54) μg/mL | 15 (4.47) μg/mL | –
Triton X-100 [reference compound] | – | – | – | – | – | – | Cell viability ± SD (HEK293T): 11.6 ± 2.5%; Cell viability ± SD (MCF7): 11.4 ± 0.4%; Cell viability ± SD [7]: 8.2 ± 0.4%
gentamicin sulfate [Gentamycin, reference compound] | – | – | – | 1 (2.09) μg/mL | 1 (2.09) μg/mL | 1 (2.09) μg/mL | MIC [2]: 5 (10.45) μg/mL; MIC [4]: 1 (2.09) μg/mL; MIC [5]: 1 (2.09) μg/mL
